According to PubChem BioAssay (NCI):
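Where inhibition never reached the appropriate level, the endpoint shown equals the highest concentration tested. Otherwise, values were interpolated linearly from a five-concentration, 48-hour dose response in 96-well plates. GI50 marks 50% less growth. The concentration for full growth arrest is given as TGI.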

Legend:
Experiment in all cases: growth of human tumour cells (NCI), 48 h
[1] = test system: K-562 leukemia
[2] = test system: SN12C renal
[3] = test system: SK-MEL-28 melanoma
[4] = test system: ACHN renal
[5] = test system: HL-60(TB) leukemia
[6] = test system: A549 NSCLC
[7] = test system: HCT-116 colon
[8] = test system: UO-31 renal
[9] = test system: SF-539 CNS
[10] = test system: MOLT-4 leukemia
[11] = test system: NCI/ADR-RES ovarian
[12] = test system: OVCAR-4 ovarian
[13] = test system: MALME-3M melanoma
[14] = test system: MDA-MB-435
[15] = test system: T-47D breast
[16] = test system: M14 melanoma
[17] = test system: OVCAR-8 ovarian
[18] = test system: 786-0 renal
[19] = test system: SNB-19 CNS
[20] = test system: SNB-75 CNS
[21] = test system: SW-620 colon
[22] = test system: UACC-62 melanoma
[23] = test system: IGROV1 ovarian
[24] = test system: MDA-MB-231 breast
[25] = test system: CCRF-CEM leukemia
[26] = test system: SK-MEL-2 melanoma
[27] = test system: OVCAR-3 ovarian
[28] = test system: SR leukemia
[29] = test system: EKVX NSCLC

## CCN1C(=O)N(CC)C2C1NN=C1SC(c3ccccc3)=CC(=O)N12 (stereo not given)
[1]
  GI50: 258 nM
  TGI: > 100000 nM
[2]
  GI50: 596 nM
  TGI: > 100000 nM
[3]
  GI50: 872 nM
  TGI: > 100000 nM
[4]
  GI50: 660 nM
  TGI: > 100000 nM
[5]
  GI50: 308 nM
[6]
  GI50: 1020 nM
  TGI: > 100000 nM
[7]
  GI50: 388 nM
  TGI: > 100000 nM
[8]
  GI50: 605 nM
  TGI: > 100000 nM
[9]
  GI50: 375 nM
  TGI: 3030 nM
[10]
  GI50: 809 nM
  TGI: > 100000 nM
[11]
  GI50: 385 nM
  TGI: > 100000 nM
[12]
  GI50: 15700 nM
  TGI: > 100000 nM
[13]
  GI50: 492 nM
  TGI: > 100000 nM
[14]
  GI50: 42.9 nM
  TGI: 176 nM
[15]
  GI50: 286 nM
  TGI: > 100000 nM
[16]
  GI50: 344 nM
  TGI: > 100000 nM
[17]
  GI50: 1470 nM
  TGI: > 20400 nM
[18]
  GI50: 472 nM
  TGI: > 100000 nM
[19]
  GI50: 730 nM
  TGI: > 100000 nM
[20]
  GI50: 210 nM
[21]
  GI50: 349 nM
  TGI: > 100000 nM
[22]
  GI50: 343 nM
  TGI: > 100000 nM
[23]
  GI50: 1090 nM
  TGI: > 100000 nM
[24]
  GI50: 2450 nM
  TGI: > 100000 nM
[25]
  GI50: 428 nM
  TGI: > 100000 nM
[26]
  GI50: 481 nM
  TGI: > 100000 nM
[27]
  GI50: 320 nM
  TGI: 1590 nM
[28]
  GI50: 140 nM
  TGI: > 100000 nM
[29]
  TGI: > 100000 nM
